Data as given in US20250145665A1, “MACROCYCLIC PEPTIDES USEFUL AS MODULATORS OF TNF ALPHA” (Bristol-Myers Squibb Company, priority 2023, published 2025).
Like-named read-outs stand apart in the source and are kept apart here. Starred links: 1 amine or outer side, 2 acyl side, 3 side chain; linkers in the order of their positions; H or OH if unused. Positions of bridges follow the written chain, without caps; N, C: chain ends. Non-standard residues stand in square brackets, D forms with d. Residues, ends and D or L forms follow the SMILES beside them. *: point of attachment. Bip(4'-NHCO-C6H4-4-CH2COOH) = N[C@@H](Cc1ccc(-c2ccc(NC(=O)c3ccc(CC(=O)O)cc3)cc2)cc1)C(=O)O; dArg(Nω-CH2C6H4-3-CH2Gua) = N=C(N)NCc1cccc(CNC(=N)NCCC[C@@H](N)C(=O)O)c1; Bip(4'-NH) = O=C([C@H](Cc1ccc(-c2ccc(N[*:3])cc2)cc1)N[*:1])[*:2]; Indazole3carbonyl(1-CH2COOH) = O=C(O)Cn1nc(C(=O)*)c2ccccc21; Bip(4'-COOH) = N[C@@H](Cc1ccc(-c2ccc(C(=O)O)cc2)cc1)C(=O)O; Bip(4'-NHAc) = CC(=O)Nc1ccc(-c2ccc(C[C@H](N)C(=O)O)cc2)cc1; X63 = N=C(NCCC[C@@H](N[*:1])C(=O)[*:2])NCCc1cccc(O)c1; X7 = N=C(NCCC[C@@H](N[*:1])C(=O)[*:2])NCc1ccc2occc2c1; Ala(morpholin-4-yl) = N[C@@H](CN1CCOCC1)C(=O)O; Phe(3-CONH2) = NC(=O)c1cccc(C[C@H](N)C(=O)O)c1; Bip = N[C@@H](Cc1ccc(-c2ccccc2)cc1)C(=O)O; Val(3-OH) = CC(C)(O)[C@H](N)C(=O)O; 2Pal = N[C@@H](Cc1ccccn1)C(=O)O; 4Pal = N[C@@H](Cc1ccncc1)C(=O)O; Cha = N[C@@H](CC1CCCCC1)C(=O)O; X20 = O=C(c1csc(-c2ccncc2)n1)*; Chg = N[C@H](C(=O)O)C1CCCCC1; Tle = CC(C)(C)[C@H](N)C(=O)O; Sar = CNCC(=O)O

Target: TNFα (Homo sapiens, UniProt P01375)
Sequence (P01375 77-233 limits assumed): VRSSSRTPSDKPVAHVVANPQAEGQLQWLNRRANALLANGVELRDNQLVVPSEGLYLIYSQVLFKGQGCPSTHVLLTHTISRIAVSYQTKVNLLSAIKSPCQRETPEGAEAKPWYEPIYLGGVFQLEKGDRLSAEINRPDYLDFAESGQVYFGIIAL
Test: TNF-Induced HEK-Blue Assay
Format: cell-based
[1] = HEK-Blue-CD40L cells, NF-kB-driven secreted alkaline phosphatase reporter, TNFα 0.5 ng/ml, 18 h, read-out: TNF induced HEK-Blue assay IC50 value

Structure (SMILES) | IC50 [1] | IC50
CC(C)C[C@@H]1NC(=O)[C@H](CCCNC(=N)N)NC(=O)[C@H](C(C)C)NC(=O)[C@@H]2CCCN2C(=O)[C@H](C(C)C)NC(=O)[C@@H](CCCNC(=N)NCCc2cccc(O)c2)NC(=O)[C@H](CC(=O)O)NC(=O)[C@@H]2CCCN2C(=O)CN(C)C(=O)[C@H](Cc2ccc(-c3ccc(NC(=O)c4nn(CC(=O)O)c5ccccc45)cc3)cc2)NC(=O)[C@H](Cc2ccc(-c3ccccc3)cc2)NC(=O)[C@H](CN2CCOCC2)NC(=O)CSC[C@@H](C(=O)NCC(N)=O)NC1=O [Example 366] ({CH2CO}-[Ala(morpholin-4-yl)][Bip][Bip(4'-NH)](Indazole3carbonyl(1-CH2COOH))[Sar]PD[X63]VPVRLCG-NH2; thioether N-13) |  | < 50 nM
CC(=O)Nc1ccc(-c2ccc(C[C@@H]3NC(=O)[C@H](Cc4ccccc4)NC(=O)CSC[C@@H](C(=O)NCC(N)=O)NC(=O)[C@H](CC(C)C)NC(=O)[C@H](CCCNC(=N)N)NC(=O)[C@H](C(C)C)NC(=O)[C@@H]4CCCN4C(=O)[C@H](C(C)C)NC(=O)[C@H](CCCNC(=N)N)NC(=O)[C@H](CC(=O)O)NC(=O)[C@@H]4CCCN4C(=O)CN(C)C(=O)[C@H](Cc4ccc(-c5ccccc5)cc4)NC3=O)cc2)cc1 [Example 38] ({CH2CO}-F[Bip(4'-NHAc)][Bip][Sar]PDRVPVRLCG-NH2; thioether N-13) | 200 to 2000 nM | 
CC[C@H](C)[C@@H]1NC(=O)[C@@H](CCCNC(=N)NCc2ccc3occc3c2)NC(=O)[C@H](CC(=O)O)NC(=O)[C@H](Cc2cnc[nH]2)NC(=O)CN(C)C(=O)[C@H](Cc2ccc(-c3ccc(NC(=O)c4nn(CC(=O)O)c5ccccc45)cc3)cc2)NC(=O)[C@H](Cc2ccc(-c3ccccc3)cc2)NC(=O)[C@H](CC2CCCCC2)NC(=O)CSC[C@@H](C(=O)NCC(N)=O)NC(=O)[C@H](CC(C)C)NC(=O)[C@H](Cc2cnc[nH]2)NC(=O)[C@H](C(C)C)NC(=O)[C@@H]2CCCN2C1=O [Example 479] ({CH2CO}-[Cha][Bip][Bip(4'-NH)](Indazole3carbonyl(1-CH2COOH))[Sar]HD[X7]IPVHLCG-NH2; thioether N-13) |  | < 50 nM
CC(=O)Nc1ccc(-c2ccc(C[C@@H]3NC(=O)[C@H](Cc4ccc(-c5ccc(C(=O)O)cc5)cc4)NC(=O)[C@H](CN4CCOCC4)NC(=O)CSC[C@@H](C(=O)NCC(N)=O)NC(=O)[C@H](CC(C)C)NC(=O)[C@H](Cc4cccc(C(N)=O)c4)NC(=O)[C@H](C4CCCCC4)NC(=O)[C@@H]4CCCN4C(=O)[C@H](C(C)C)NC(=O)[C@@H](CCCNC(=N)N)NC(=O)[C@H](CC(=O)O)NC(=O)[C@@H]4CCCN4C(=O)CN(C)C3=O)cc2)cc1 [Example 320] ({CH2CO}-[Ala(morpholin-4-yl)][Bip(4'-COOH)][Bip(4'-NHAc)][Sar]PD[dR]VP[Chg][Phe(3-CONH2)]LCG-NH2; thioether N-13) | 200 to 2000 nM | 

More lines, main results first:

IC50 [1] | Structure (SMILES) | IC50
< 50 nM | CC[C@H](C)[C@@H]1NC(=O)[C@@H]2CCCN2C(=O)[C@H]([C@@H](C)CC)NC(=O)[C@@H](CCCNC(=N)N)NC(=O)[C@H](CC(=O)O)NC(=O)[C@H](Cc2ccccc2)NC(=O)CN(C)C(=O)[C@H](Cc2ccc(-c3ccc(NC(=O)c4csc(-c5ccncc5)n4)cc3)cc2)NC(=O)[C@H](Cc2ccc(-c3ccc(C(=O)O)cc3)cc2)NC(=O)[C@H](C(C)(C)C)NC(=O)CSC[C@@H](C(=O)NCC(N)=O)NC(=O)[C@H](CC(C)C)NC(=O)[C@H](Cc2cnc[nH]2)NC1=O [Example 353] ({CH2CO}-[Tle][Bip(4'-COOH)][Bip(4'-NH)](X20)[Sar]FD[dR]IPIHLCG-NH2; thioether N-13) | 
50 to 200 nM | CC(C)C[C@@H]1NC(=O)[C@H](CCCNC(=N)N)NC(=O)[C@H](C(C)C)NC(=O)[C@@H]2CCCN2C(=O)[C@H](C(C)C)NC(=O)[C@@H](CCCNC(=N)NCc2cccc(CNC(=N)N)c2)NC(=O)[C@H](CC(=O)O)NC(=O)[C@@H]2CCCN2C(=O)CN(C)C(=O)[C@H](Cc2ccc(-c3ccc(NC(=O)c4ccc(CC(=O)O)cc4)cc3)cc2)NC(=O)[C@H](Cc2ccc(-c3ccccc3)cc2)NC(=O)[C@H](CN2CCOCC2)NC(=O)CSC[C@@H](C(=O)NCC(N)=O)NC1=O [Example 571] ({CH2CO}-[Ala(morpholin-4-yl)][Bip][Bip(4'-NHCO-C6H4-4-CH2COOH)][Sar]PD[dArg(Nω-CH2C6H4-3-CH2Gua)]VPVRLCG-NH2; thioether N-13) | 
50 to 200 nM | CC(C)[C@@H]1NC(=O)[C@H](CCCNC(=N)N)NC(=O)[C@H](C(C)C)NC(=O)[C@@H]2CCCN2C(=O)[C@H](C(C)C)NC(=O)[C@H](CCCNC(=N)N)NC(=O)[C@H](CC(=O)O)NC(=O)[C@@H]2CCCN2C(=O)CN(C)C(=O)[C@H](Cc2ccc(-c3ccccc3)cc2)NC(=O)[C@H](Cc2ccncc2)NC(=O)[C@H](CN2CCOCC2)NC(=O)CSC[C@@H](C(=O)NCC(N)=O)NC1=O [Example 86] ({CH2CO}-[Ala(morpholin-4-yl)][4Pal][Bip][Sar]PDRVPVRVCG-NH2; thioether N-13) | 
50 to 200 nM | CC(C)C[C@@H]1NC(=O)[C@H](CCCNC(=N)N)NC(=O)[C@H](C(C)C)NC(=O)[C@H](Cc2ccccn2)NC(=O)[C@H](C(C)C)NC(=O)[C@H](CCCNC(=N)N)NC(=O)[C@H](CC(=O)O)NC(=O)[C@@H]2CCCN2C(=O)CN(C)C(=O)[C@H](Cc2ccc(-c3ccccc3)cc2)NC(=O)[C@H](Cc2ccc(-c3ccccc3)cc2)NC(=O)[C@H](C(C)(C)O)NC(=O)CSC[C@@H](C(=O)NCC(N)=O)NC1=O [Example 108] ({CH2CO}-[Val(3-OH)][Bip][Bip][Sar]PDRV[2Pal]VRLCG-NH2; thioether N-13) | 
